pIC50: −log10 of the molar value.
What was measured:
[1] = biological target: T1, CSBP2 (Homo sapiens, UniProt Q16539); experiment: CSBP Kinase Assay; format: biochemical; conditions: yeast-expressed purified CSBP2; 170 uM ATP (Km); T669 peptide substrate; 30° C. for 10 min
T1 construct: made in house; host or cells: yeast
Protocol: This assay measures the CSBP-catalyzed transfer of ^32P from [a-^32P]ATP to threonine residue in an epidermal growth factor receptor (EGFR)-derived peptide (T669) with the following sequence: […] (residues 661-681). (See Gallagher et al., “Regulation of Stress Induced Cytokine Production by Pyridinyl Imidazoles: Inhibition of CSPB Kinase”, BioOrganic & Medicinal Chemistry, to be published 1996).
Kinase reactions (total volume 30 ul) contain: 25 mM Hepes buffer, pH 7.5; 10 mM MgCl2; 170 uM ATP^(1); 10 uM Na ortho vanadate; 0.4 mM T669 peptide; and 20-80 ng of yeast-expressed purified CSBP2 (see Lee et al., Nature 300, n(72), 739-746 (December 1994)). Compounds (5 ul from [6×] stock^(2)) are pre-incubated with the enzyme and peptide for 20 min on ice prior to starting the reactions with 32P/MgATP. Reactions are incubated at 30° C. for 10 min and stopped by adding 10 ul of 0.3 M phosphoric acid. 32P-labeled peptide is separated on phosphocellulose (Wattman, p81) filters by spotting 30 ul reaction mixture. Filters are washed 3 times with 75 mM phosphoric acid followed by 2 washes with H2O, and counted for 32P.
(1) The Km of CSBP for ATP was determined to be 170 uM. Therefore, compounds screened at the Km value of ATP.
(2) Compounds are usually dissolved in DMSO and are diluted in 25 mM Hepes buffer to get final concentration of DMSO of 0.17%.

T1 sequence (Q16539 whole entry): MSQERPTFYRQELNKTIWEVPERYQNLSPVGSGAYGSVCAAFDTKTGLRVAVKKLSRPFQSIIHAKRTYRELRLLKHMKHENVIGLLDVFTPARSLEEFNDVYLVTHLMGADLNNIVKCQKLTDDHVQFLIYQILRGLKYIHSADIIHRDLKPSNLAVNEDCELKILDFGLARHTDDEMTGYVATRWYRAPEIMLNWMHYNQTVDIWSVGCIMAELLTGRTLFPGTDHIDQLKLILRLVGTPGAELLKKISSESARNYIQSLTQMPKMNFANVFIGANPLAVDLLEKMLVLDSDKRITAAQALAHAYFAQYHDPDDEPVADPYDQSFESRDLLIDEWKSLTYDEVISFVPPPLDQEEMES

Q: With `Nc1nccc(C2=C(c3ccc(F)cc3)CCC2)n1` [Example 1, 1-[4-(2-Aminopyrimidinyl)]-2-(4-fluorophenyl)cyclopenten-1-ene] as the compound, how does the pIC50 [1] read?
A: > 4.30

Q: What about the melting point of the same compound?
A: 134 to 135 °C

— patent US6362193B1, “Cycloalkenyl substituted compounds” (SmithKline Beecham Corporation, priority 1997, dated 2002)
